From patent US20240376097A1, “BCL-2 Inhibitor” (BeiGene Ltd., priority 2020, published 2024)
Read-outs that look alike come from different tables or passages of the source.

Columns and labels:
[1] = test system: RS4;11 (BCL-2 dependent acute lymphoblastic leukemia cell line); experiment: RS4;11 Cell Proliferation Assay; assay type: cell-based; conditions: Homo sapiens, RS4;11 cells, read-out: Cellular proliferation assay (IC50, nM) RS4
In short: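 RS4;11 cells, 50,000 per well in RPMI-1640 with 10% FBS, treated 48 h at 37 °C with a 10-point dilution series topping at 1 μM. Viability read by CellTiter-Glo ATP luminescence; mean IC50 reported.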

[2] = biological target: Recombinant human Bcl-2 protein (Homo sapiens (Human), UniProt P10415); experiment: Bcl-2 TR-FRET Assay; assay type: binding
Sequence of Recombinant human Bcl-2 protein (P10415 whole entry): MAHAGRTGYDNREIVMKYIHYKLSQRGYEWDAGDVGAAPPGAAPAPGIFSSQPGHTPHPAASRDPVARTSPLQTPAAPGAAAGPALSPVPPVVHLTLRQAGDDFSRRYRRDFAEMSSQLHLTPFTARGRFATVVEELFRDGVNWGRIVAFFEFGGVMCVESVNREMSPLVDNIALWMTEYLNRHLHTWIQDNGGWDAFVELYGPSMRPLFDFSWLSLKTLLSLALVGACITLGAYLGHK
In short: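 Compounds were pre-incubated with 0.05 nM recombinant Bcl-2 for 0.5 h at room temperature in potassium phosphate buffer, pH 7.5. FITC-Bak peptide (0.5 nM) and Tb-cryptate antibody were then added for 1 h. Percent inhibition from TR-FRET signals gave IC50 values.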

[3] = biological target: recombinant human Bcl-2 D103Y protein (Homo sapiens (Human), UniProt P10415, D103Y); experiment: Bcl-2-D103Y Biochemical Assay (TR-FRET); assay type: binding; conditions: for IC50: TR-FRET, FITC labeled Bak peptide; for Ratio of Bcl-2 D103Y/Bcl-2 WT: ratio of IC50
Sequence of recombinant human Bcl-2 D103Y protein (P10415 whole entry D103Y): as the sequence (P10415 whole entry) above, with D103Y counted along it
In short: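 Recombinant human Bcl-2 D103Y binding to its ligand measured by TR-FRET (ex 337 nm, em 490/520 nm) with increasing compound concentrations. Percent inhibition from the 490/520 nm ratio; IC50 from four-parameter logistic fit.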

[4] = Bcl-2 wild type, TR-FRET, read-out: Biochemical assay (IC50, nM) Bcl-2 WT
[5] = wild type Bcl-2, unit inferred, read-out: Bcl-2 WT

## COc1ccc(CN2CCN(C3CC4(CCN(c5ccc(C(=O)NS(=O)(=O)c6ccc(NCC7(F)CCOCC7)c([N+](=O)[O-])c6)c(Oc6cnc7[nH]ccc7c6)c5)CC4)C3)[C@H](c3ccccc3C(C)C)C2)cc1 (single isomer, unassigned) [Example 32, (R or S)-2-((1H-pyrrolo[2,3-b]pyridin-5-yl)oxy)-N-((4-(((4-fluorotetrahydro-2H-pyran-4-yl)methyl)amino)-3-nitrophenyl)sulfonyl)-4-(2-(2-(2-isopropylphenyl)-4-(4-methoxybenzyl)piperazin-1-yl)-7-azaspiro[3.5]nonan-7-yl)benzamide]
[1]
  IC50: 0.18 nM
[2]; [4]
  IC50: 0.096 nM
[2]; [5]
  IC50: 0.096 nM
[3]
  IC50: 0.11 nM
  Ratio of Bcl-2 D103Y/Bcl-2 WT: 1.1

## CC(C)c1ccccc1[C@@H]1CN(Cc2ccc(F)c(F)c2)CCN1C1CC2(CCN(c3ccc(C(=O)NS(=O)(=O)c4ccc(NC[C@H]5CC[C@](C)(O)CC5)c([N+](=O)[O-])c4)c(Oc4cnc5[nH]ccc5c4)c3)CC2)C1 (single isomer, unassigned) [Example 52a, 2-((1H-pyrrolo[2,3-b]pyridin-5-yl)oxy)-4-(2-((R or S)-4-(3,4-difluorobenzyl)-2-(2-isopropylphenyl)piperazin-1-yl)-7-azaspiro[3.5]nonan-7-yl)-N-((4-((((1r,4r)-4-hydroxy-4-methylcyclohexyl)methyl)amino)-3-nitrophenyl)sulfonyl)benzamide]
[1]
  IC50: 0.25 nM
[2]; [4]
  IC50: 0.16 nM
[2]; [5]
  IC50: 0.16 nM
[3]
  IC50: 0.37 nM
  Ratio of Bcl-2 D103Y/Bcl-2 WT: 2.4

## COc1ccc(CN2CCN(C3CC4(CCN(c5ccc(C(=O)NS(=O)(=O)c6ccc(NC[C@H]7CC[C@](C)(O)CC7)c([N+](=O)[O-])c6)c(Oc6cnc7[nH]ccc7c6)c5)CC4)C3)[C@H](c3ccccc3C(C)C)C2)cc1 [Example 19a, 2-((1H-pyrrolo[2,3-b]pyridin-5-yl)oxy)-N-((4-((((1r,4r)-4-hydroxy-4-methylcyclohexyl)methyl)amino)-3-nitrophenyl)sulfonyl)-4-(2-((R)-2-(2-isopropylphenyl)-4-(4-methoxybenzyl)piperazin-1-yl)-7-azaspiro[3.5]nonan-7-yl)benzamide]
[1]
  IC50: 0.15 nM
[2]; [4]
  IC50: 0.057 nM
[2]; [5]
  IC50: 0.057 nM
[3]
  IC50: 0.15 nM
  Ratio of Bcl-2 D103Y/Bcl-2 WT: 2.6
[3]; comparison in words
  ratio of Bcl-2 D103Y/Bcl-2 wt, compared with F91b in WO2019210828: significantly lower

## CC(C)c1ccccc1C1CN(Cc2ccc(F)cc2)CCN1C1CC2(CCN(c3ccc(C(=O)NS(=O)(=O)c4ccc(NC[C@H]5CC[C@](C)(O)CC5)c([N+](=O)[O-])c4)c(Oc4cnc5[nH]ccc5c4)c3)CC2)C1 (stereo partly drawn) [Example 28, 2-((1H-pyrrolo[2,3-b]pyridin-5-yl)oxy)-4-(2-(4-(4-fluorobenzyl)-2-(2-isopropylphenyl)piperazin-1-yl)-7-azaspiro[3.5]nonan-7-yl)-N-((4-((((1r,4r)-4-hydroxy-4-methylcyclohexyl)methyl)amino)-3-nitrophenyl)sulfonyl)benzamide]
[1]
  IC50: 0.39 nM
[2]; [4]
  IC50: 0.23 nM
[2]; [5]
  IC50: 0.23 nM
[3]
  IC50: 0.34 nM
  Ratio of Bcl-2 D103Y/Bcl-2 WT: 1.5

## CC(C)c1ccccc1C1CN(Cc2ccc(Cl)cc2)CCN1C1CC2(CCN(c3ccc(C(=O)NS(=O)(=O)c4ccc(NC[C@H]5CC[C@](C)(O)CC5)c([N+](=O)[O-])c4)c(Oc4cnc5[nH]ccc5c4)c3)CC2)C1 (stereo partly drawn) [Example 29, 2-((1H-pyrrolo[2,3-b]pyridin-5-yl)oxy)-4-(2-(4-(4-chlorobenzyl)-2-(2-isopropylphenyl)piperazin-1-yl)-7-azaspiro[3.5]nonan-7-yl)-N-((4-((((1r,4r)-4-hydroxy-4-methylcyclohexyl)methyl)amino)-3-nitrophenyl)sulfonyl)benzamide]
[1]
  IC50: 0.43 nM
[2]; [4]
  IC50: 0.29 nM
[2]; [5]
  IC50: 0.29 nM
[3]
  IC50: 0.57 nM
  Ratio of Bcl-2 D103Y/Bcl-2 WT: 1.9

## CC(C)c1ccccc1C1CN(Cc2ccc(C(F)(F)F)cc2)CCN1C1CC2(CCN(c3ccc(C(=O)NS(=O)(=O)c4ccc(NC[C@H]5CC[C@](C)(O)CC5)c([N+](=O)[O-])c4)c(Oc4cnc5[nH]ccc5c4)c3)CC2)C1 (stereo partly drawn) [Example 41, 2-((1H-pyrrolo[2,3-b]pyridin-5-yl)oxy)-N-((4-((((1r,4r)-4-hydroxy-4-methylcyclohexyl)methyl)amino)-3-nitrophenyl)sulfonyl)-4-(2-(2-(2-isopropylphenyl)-4-(4-(trifluoromethyl)benzyl)piperazin-1-yl)-7-azaspiro[3.5]nonan-7-yl) benzamide]
[1]
  IC50: 0.74 nM
[2]; [4]
  IC50: 0.83 nM
[2]; [5]
  IC50: 0.83 nM
[3]
  IC50: 3.1 nM
  Ratio of Bcl-2 D103Y/Bcl-2 WT: 3.7

## CC(C)c1ccccc1C1CN(Cc2cccc(F)c2)CCN1C1CC2(CCN(c3ccc(C(=O)NS(=O)(=O)c4ccc(NC[C@H]5CC[C@](C)(O)CC5)c([N+](=O)[O-])c4)c(Oc4cnc5[nH]ccc5c4)c3)CC2)C1 (stereo partly drawn) [Example 43, 2-((1H-pyrrolo[2,3-b]pyridin-5-yl)oxy)-4-(2-(4-(3-fluorobenzyl)-2-(2-isopropylphenyl)piperazin-1-yl)-7-azaspiro[3.5]nonan-7-yl)-N-((4-((((1r,4r)-4-hydroxy-4-methylcyclohexyl)methyl)amino)-3-nitrophenyl)sulfonyl)benzamide]
[1]
  IC50: 0.48 nM
[2]; [4]
  IC50: 0.31 nM
[2]; [5]
  IC50: 0.31 nM
[3]
  IC50: 0.83 nM
  Ratio of Bcl-2 D103Y/Bcl-2 WT: 2.7

## CC(C)c1ccccc1C1CN(Cc2ccccc2F)CCN1C1CC2(CCN(c3ccc(C(=O)NS(=O)(=O)c4ccc(NC[C@H]5CC[C@](C)(O)CC5)c([N+](=O)[O-])c4)c(Oc4cnc5[nH]ccc5c4)c3)CC2)C1 (stereo partly drawn) [Example 46, 2-((1H-pyrrolo[2,3-b]pyridin-5-yl)oxy)-4-(2-(4-(2-fluorobenzyl)-2-(2-isopropylphenyl)piperazin-1-yl)-7-azaspiro[3.5]nonan-7-yl)-N-((4-((((1r,4r)-4-hydroxy-4-methylcyclohexyl)methyl)amino)-3-nitrophenyl)sulfonyl)benzamide]
[1]
  IC50: 0.91 nM
[2]; [4]
  IC50: 0.34 nM
[2]; [5]
  IC50: 0.34 nM
[3]
  IC50: 1.8 nM
  Ratio of Bcl-2 D103Y/Bcl-2 WT: 5.1

## COc1ccc(CN2CCN(C3CC4(CCN(c5ccc(C(=O)NS(=O)(=O)c6ccc(NC[C@H]7CC[C@](C)(O)CC7)c([N+](=O)[O-])c6)c(Oc6cnc7[nH]ccc7c6)c5)CC4)C3)C(c3ccccc3C(C)C)C2)c(OC)c1 (stereo partly drawn) [Example 48]
[1]
  IC50: 0.43 nM
[2]; [4]
  IC50: 0.072 nM
[2]; [5]
  IC50: 0.072 nM
[3]
  IC50: 0.2 nM
  Ratio of Bcl-2 D103Y/Bcl-2 WT: 2.8

## CC(C)c1ccccc1C1CN(Cc2cc(F)cc(F)c2)CCN1C1CC2(CCN(c3ccc(C(=O)NS(=O)(=O)c4ccc(NC[C@H]5CC[C@](C)(O)CC5)c([N+](=O)[O-])c4)c(Oc4cnc5[nH]ccc5c4)c3)CC2)C1 (stereo partly drawn) [Example 51, 2-((1H-pyrrolo[2,3-b]pyridin-5-yl)oxy)-4-(2-(4-(3,5-difluorobenzyl)-2-(2-isopropylphenyl)piperazin-1-yl)-7-azaspiro[3.5]nonan-7-yl)-N-((4-((((1r,4r)-4-hydroxy-4-methylcyclohexyl)methyl)amino)-3-nitrophenyl)sulfonyl)benzamide]
[1]
  IC50: 0.49 nM
[2]; [4]
  IC50: 0.42 nM
[2]; [5]
  IC50: 0.42 nM
[3]
  IC50: 1.5 nM
  Ratio of Bcl-2 D103Y/Bcl-2 WT: 3.5

## COc1ccc(CN2CCN(C3CC4(CCN(c5ccc(C(=O)NS(=O)(=O)c6ccc(NC[C@H]7CC[C@](C)(O)CC7)c([N+](=O)[O-])c6)c(Oc6cnc7[nH]ccc7c6)c5)CC4)C3)[C@H](c3ccccc3C(C)C)C2)cc1OC [Example 81a, 2-((1H-pyrrolo[2,3-b]pyridin-5-yl)oxy)-4-(2-((R)-4-(3,4-dimethoxybenzyl)-2-(2-isopropylphenyl)piperazin-1-yl)-7-azaspiro[3.5]nonan-7-yl)-N-((4-((((1r,4r)-4-hydroxy-4-methylcyclohexyl)methyl)amino)-3-nitrophenyl)sulfonyl)benzamide]
[1]
  IC50: 0.146 nM
[2]; [4]
  IC50: 0.038 nM

## COc1cc(CN2CCN(C3CC4(C3)CN(c3ccc(C(=O)NS(=O)(=O)c5ccc(NC[C@H]6CC[C@](C)(O)CC6)c([N+](=O)[O-])c5)c(Oc5cnc6[nH]cc(F)c6c5)c3)C4)[C@H](c3ccccc3C(C)C)C2)cc(F)c1OC [Example 230, 2-((3-fluoro-1H-pyrrolo[2,3-b]pyridin-5-yl)oxy)-4-(6-((R)-4-(3-fluoro-4,5-dimethoxybenzyl)-2-(2-isopropylphenyl)piperazin-1-yl)-2-azaspiro[3.3]heptan-2-yl)-N-((4-((((1r,4r)-4-hydroxy-4-methylcyclohexyl)methyl)amino)-3-nitrophenyl)sulfonyl)benzamide]
[1]
  IC50: 0.1 nM
[2]; [4]
  IC50: 0.19 nM

## COc1cc(CN2CCN(C3CC4(CCN(c5ccc(C(=O)NS(=O)(=O)c6ccc(NC[C@H]7CC[C@](C)(O)CC7)c([N+](=O)[O-])c6)c(Oc6cnc7[nH]ccc7c6)c5)CC4)C3)[C@H](c3ccccc3C(C)C)C2)ccc1C1CC1 [Example 257]
[1]
  IC50: 0.15 nM
[2]; [4]
  IC50: 0.4 nM
